Measurements reported in patent US10246712B2, “Genetic or pharmacological reduction of PERK enhances cortical- and hippocampus-dependent cognitive function” (Carmel-Haifa University Economic Corp. Ltd, priority 2015, dated 2019).

Experiments:
p-eIF2α [1] = assay: Immunoblot of p-eIF2α levels in rat insular cortex (IC); type: in vivo; conditions: 1 μl, 100 nM stereotactic injection to the IC, compared to vehicle; n=15; data not shown
Experimental: For virus infusions, rats were first anesthetized with Ketamine (120 mg/kg) and Xylazine (6 mg/kg) and placed into a stereotactic frame (Steolting Europe, Dublin—Ireland) (Using a 32-gauge stainless steel injector attached to a stereotactic infusion pump, rats received 1 μl of lentivirus encoding PERK shRNA or lentivirus harboring a scrambled sequence over 10 min into the insular cortex (anteroposterior, +1.2 mm relative to bregma; lateral, ±5.5 mm; ventral, −6.0 mm) according to the atlas of Paxinos, G. & Watson, C. (2006). The injector was lets in place for 5 min before and after infusion to minimize fluid retraction. The rats were allowed at least 7 days to recover from the surgery before any behavior experiments were conducted.
The rats were cannulated as described in Barki-Harrington et al. (2009). Briefly, the rats were anesthetized by administration of equithesin (0.3 ml/100 g), comprising 2.12% (w/v) MgSO4, 10% (v/v) ethanol, 39.1% (v/v) propyleneglycol, 0.98% (w/v) sodium pentobarbital, and 4.2% (w/v) chloral hydrate. […]
At the end of the behavioral procedure, the brains were removed, and snap-frozen in liquid nitrogen. […] Protein content was determined with the BCA Protein Assay Kit (GE Healthcare). […]

p-eIF2α [2] = assay: Immunoblot of p-eIF2α levels in CA1 punches; type: in vivo, mouse; conditions: CA1 punches after 100 nM infusion into CA1, adult mice; vs vehicle
PERK = target: T1, PERK (Rattus norvegicus, UniProt Q9Z1Z1); type: in vivo; conditions: 0.1% saccharin; 1 μl 100 nM into IC 20 min prior to novel taste; test day1; n=8
T1 construct: the PERK shRNA lentivirus was stereotacticaly injected to the IC of adult rats; from tissue; host or cells: insular cortex of adult male Wistar Hola rats, in vivo
T1 sequence (Q9Z1Z1 28-1108): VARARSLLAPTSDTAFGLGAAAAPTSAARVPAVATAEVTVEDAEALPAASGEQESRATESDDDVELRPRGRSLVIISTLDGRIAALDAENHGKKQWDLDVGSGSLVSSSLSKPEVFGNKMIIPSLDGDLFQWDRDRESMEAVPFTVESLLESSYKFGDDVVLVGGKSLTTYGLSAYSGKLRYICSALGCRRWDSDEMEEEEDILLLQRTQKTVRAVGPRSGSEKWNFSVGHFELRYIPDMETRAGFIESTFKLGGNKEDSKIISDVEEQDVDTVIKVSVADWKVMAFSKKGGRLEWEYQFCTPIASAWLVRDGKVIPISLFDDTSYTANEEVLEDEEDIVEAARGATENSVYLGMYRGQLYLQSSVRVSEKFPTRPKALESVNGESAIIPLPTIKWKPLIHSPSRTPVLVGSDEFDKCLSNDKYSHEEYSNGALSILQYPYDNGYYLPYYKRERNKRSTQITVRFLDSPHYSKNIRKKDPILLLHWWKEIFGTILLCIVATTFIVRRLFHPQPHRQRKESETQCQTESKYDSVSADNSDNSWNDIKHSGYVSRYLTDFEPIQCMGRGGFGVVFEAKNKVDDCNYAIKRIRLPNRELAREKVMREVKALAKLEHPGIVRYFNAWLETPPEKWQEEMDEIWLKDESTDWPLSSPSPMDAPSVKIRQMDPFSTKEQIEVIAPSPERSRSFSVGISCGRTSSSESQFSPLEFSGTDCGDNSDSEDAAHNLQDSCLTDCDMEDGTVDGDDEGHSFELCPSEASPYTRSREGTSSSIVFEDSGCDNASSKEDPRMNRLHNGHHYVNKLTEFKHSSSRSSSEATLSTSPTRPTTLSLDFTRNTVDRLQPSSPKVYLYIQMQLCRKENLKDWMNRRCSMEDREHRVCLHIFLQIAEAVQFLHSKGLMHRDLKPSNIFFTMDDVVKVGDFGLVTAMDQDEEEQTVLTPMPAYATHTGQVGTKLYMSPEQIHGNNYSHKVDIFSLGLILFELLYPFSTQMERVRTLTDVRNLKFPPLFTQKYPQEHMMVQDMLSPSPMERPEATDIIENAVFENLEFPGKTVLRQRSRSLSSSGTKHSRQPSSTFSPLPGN
Experimental: The rats were cannulated as described in Barki-Harrington et al. (2009). […]
The rats were separated into individual housing cages and underwent a 3-day water-restriction training session, in which once a day for 20 min, they were offered 20 ml of water from two pipettes, each containing 10 ml. […] The behavioral data are presented in terms of preference index, expressed as a percentage, [ml saccharin/(ml water plus ml saccharin)]×100, in which the quantities are those consumed during each test.

## Cn1cc(-c2ccc3c(c2)CCN3C(=O)Cc2cccc(C(F)(F)F)c2)c2c(N)ncnc21 [GSK2606414, 7-methyl-5-(1-{[3-(trifluoromethyl)phenyl]acetyl}-2,3-dihydro-1H-indol-5-yl)-7H-pyrrolo[2,3-d]pyrimidin-4-amine]
p-eIF2α [1]
  reduction in p-eIF2α levels: 40%
p-eIF2α [2]
  p-eIF2α levels: significant reduction
PERK
  preference index: 83%±2.2
